In patent US20080241904A1, “PROCESS FOR PRODUCING ISOMALTOSE AND USES THEREOF” (KABUSHIKI KAISHA HAYASHIBARA SEIBUTSU KAGAKU KENKYUJO, priority 2001, published 2008):

What was measured:
[1] = tested on: α-isomaltosyl-transferring enzyme; assay: Influence of metal ions on activity of α-isomaltosyl-transferring enzyme (Strain C9); type: biochemical, Bacillus globisporus C9; settings: for Relative activity: in the presence of 1 mM of each metal ion, None = 100; for Effect on enzyme activity (in words): 1 mM, summary of Table 4
Description: (§1) The α-isomaltosyl-transferring enzyme was assayed for enzymatic activity by dissolving panose in 100 mM acetate buffer (pH 6.0) to give a concentration of 2% (w/v) for a substrate solution, adding a 0.5 ml of an enzyme solution to 0.5 ml of the substrate solution, enzymatically reacting the mixture solution at 35° C. for 30 min, suspending the reaction mixture by boiling for 10 min, and quantifying glucose, among the cyclotetrasaccharide and glucose formed in the reaction mixture, by the glucose oxidase method. One unit activity of the α-isomaltosyl-transferring enzyme is defined as the enzyme amount that forms one micromole of glucose per minute under the above enzymatic reaction conditions.
(§2) The influence of metal ions on the activity of α-isomaltosyl-transferring enzyme was examined in the presence of 1 mM of each metal-ion according to the assay for the enzyme activity.

[2] = tested on: α-isomaltosylglucosaccharide-forming enzyme; assay: Influence of metal ions on activity of α-isomaltosylglucosaccharide-forming enzyme (Strain C9); type: biochemical, Bacillus globisporus C9; settings: for Effect on enzyme activity (in words): 1 mM, summary of Table 2; for Relative activity: in the presence of 1 mM of each metal ion, None = 100
Description: The activities of these enzymes were assayed as follows: The α-isomaltosylglucosaccharide-forming enzyme of the present invention was assayed for enzymatic activity by dissolving maltotriose in 100 mM acetate buffer (pH 6.0) to give a concentration of 2% (w/v) for a substrate solution, adding a 0.5 ml of an enzyme solution to a 0.5 ml of the substrate solution, enzymatically reacting the mixture solution at 35° C. for 60 min, suspending the reaction mixture by heating at 100° C. for 10 min, and quantifying maltose, among the isomaltosyl maltose and maltose formed in the reaction mixture, by high-performance liquid chromatography (abbreviated as “HPLC” hereinafter). HPLC was carried out using “YMC PACK ODS-AQ303 column” commercialized by YMC Co., Ltd., Tokyo, Japan, at a column temperature of 40° C. and a flow rate of 0.5 ml/min of water; and using “RI-8012”, a differential refractometer commercialized by Tosoh Corporation, Tokyo, Japan. One unit activity of the α-isomaltosylglucosaccharide-forming enzyme is defined as the enzyme amount that forms one micromole of maltose per minute under the above enzymatic reaction conditions.
The influence of metal ions on the activity of α-isomaltosylglucosaccharide-forming enzyme was examined in the presence of 1 mM of each metal-ion according to the assay for the enzyme activity.

[3] = tested on: α-isomaltosylglucosaccharide-forming enzyme; assay: Influence of metal ions on enzyme activity, Experiment 4-2 (Strain C11); type: biochemical, Bacillus globisporus C11; settings: for Effect on enzyme activity (in words): 1 mM, summary of Table 6; for Relative activity: in the presence of 1 mM of each metal ion, None = 100
[4] = tested on: α-isomaltosyl-transferring enzyme; assay: Influence of metal ions on activity of α-isomaltosyl-transferring enzyme (Strain C11); type: biochemical, Bacillus globisporus C11; settings: for Relative activity: in the presence of 1 mM of each metal ion, None = 100; for Effect on enzyme activity (in words): 1 mM, summary of Table 8
Description: as §1, §2

SMILES | Relative activity [1] [%] | Effect on enzyme activity (in words) [2] | Relative activity [2] [%] | Effect on enzyme activity (in words) [3] | Relative activity [3] [%] | Relative activity [4] [%] | Effect on enzyme activity (in words) [1] | Effect on enzyme activity (in words) [4]
[Al+3] [Al^3+] | 103 | – | 99 | – | 100 | 89 | – | –
O=C(O)CN(CCN(CC(=O)O)CC(=O)O)CC(=O)O [EDTA] | 104 | greatly inhibited | 20 | greatly inhibited | 24 | 98 | not inhibited | not inhibited
[Ca+2] [Ca^2+] | 101 | activated | 115 | activated | 109 | 91 | not activated | not activated
[Ni+2] [Ni^2+] | 102 | – | – | – | 93 | 89 | – | –
[Cu+2] [Cu^2+] | 57 | greatly inhibited | 15 | greatly inhibited | 23 | 56 | inhibited | inhibited
[Co+2] [Co^2+] | 103 | – | 100 | – | 96 | 89 | – | –
[Pb+2] [Pb^2+] | 89 | – | 103 | – | 101 | 74 | – | –
[Hg+2] [Hg^2+] | 1 | greatly inhibited | 4 | greatly inhibited | 4 | 2 | greatly inhibited | greatly inhibited
[Ba+2] [Ba^2+] | 102 | inhibited | 65 | inhibited | 65 | 90 | – | –

Second part, the compound after the results:

Relative activity [1] [%] | Effect on enzyme activity (in words) [2] | Relative activity [2] [%] | Effect on enzyme activity (in words) [3] | Relative activity [3] [%] | Relative activity [4] [%] | Effect on enzyme activity (in words) [1] | Effect on enzyme activity (in words) [4] | SMILES
101 | inhibited | 80 | inhibited | 83 | 93 | – | – | [Sr+2] [Sr^2+]
– | – | 100 | – | – | 91 | – | – | [Mg+2] [Mg^2+]
106 | activated | 111 | activated | 142 | 93 | – | – | [Mn+2] [Mn^2+]
88 | – | 92 | – | 91 | 83 | – | – | [Zn+2] [Zn^2+]
